Assay results taken from patent publication US8877968B2, “Melanocortin receptor modulators, process for preparing them and use there in human medicine and cosmetics” (Galderma Research & Development, priority 2008, dated 2014).
pEC50: −log10 of the molar value.

Experiments:
[1] = test system: B6.Cg-Ay mice; assay: Modulation of the pigmentation of hair during regrowth after depilation in mice; assay type: in vivo; conditions: female B6.Cg-Ay mice; 5% in ethanol applied topically every day for 11 days after depilation; chromametry 19 days after depilation; smaller L = darker hair
From the text: FIG. 2 is a bar graph showing the modulation of the pigmentation of hair during regrowth after depilation in mice, where the L value measures color on a scale where the smaller the value of L, the darker the hair, for two compounds of the invention diluted in ethanol and applied topically each day for 11 days after depilation.
Modulation of the Pigmentation of Hair During Regrowth After Depilation in Mice: (Results in Table of FIG. 2)
Female 8-week-old B6.Cg-Ay mice are shaved and then subjected to depilation with cold wax under gaseous anaesthesia to synchronize all the hair follicles at the start of the anagenic phase.
After depilation, the MC1R agonists diluted to 5% in ethanol are applied topically every day to the depilated area for 11 days. Nineteen days after depilation, the pigmentation of the hairs is measured by chromametry on the area of regrowth: the L value measures the colour on a scale ranging from black to white (the smaller the value of L, the darker the hair).

[2] = Test of metabolic stability in the presence of liver microsomes; assay type: in vitro ADME; conditions: liver microsomes 0.5 mg/ml, product 10 μM, 37° C., pH 7.4, NADP/G6P cofactors; disappearance of parent by LC/MS/MS; species not given; read-out: t½
Description: Test of Metabolic Stability in the Presence of Liver Microsomes
The microsomes are cellular endoplasmic reticulum vesicles obtained after purification, from liver tissue. They contain membrane enzymes (Cytochromes P450) involved in oxidative metabolism (phase I).
In a buffered reaction medium at 37° C., the test product is incubated in the presence of microsomes from different species. Samples of the incubate are taken at different times (kinetics). Quantification by LC/MS/MS analysis makes it possible to measure the disappearance of parent product associated with the phase I liver metabolism.
The products are dissolved at 10 mM in DMSO. They are incubated at 10 μM in the presence of microsomes (0.5 mg/ml). The reaction medium is formed from 100 mM phosphate buffer at pH 7.4, G6PDH (0.4 U/ml), 0.01% Pluronic acid and cofactors MgCl2 5 mM, NADP and G6P (1.3 mM and 3.3 mM, respectively). Samples of the reaction medium are taken at 0, 5, 10, 15, 30 and 60 minutes. At each time, the enzymatic reaction is stopped by adding methanol. After centrifugation (3000 rpm, 30 minutes), the samples are analysed by LC/MS/MS. The concentration of parent product remaining is quantified over time and allows a half-life to be calculated for each product.

[3] = biological target: T1, hMC1R (Homo sapiens, UniProt Q01726); assay: Transactivation test (CRE-Luc luciferase, agonist mode); assay type: cell-based; conditions: HEK293 transfected with pCRE-Luc and hMC1R; products tested alone (agonist), 6 hours; normalized to NDP-MSH 10 nM = 100%; read-out: EC50 hMC1-R
T1 construct: expressed in transfected cells; host or cells: HEK293
Description: The lines HEK293 are transfected with vectors pCRE-Luc and hMC1R. The cells are cultured at 37° C. and 5% CO2, in DMEM medium supplemented with 10% foetal calf serum.
In the presence of an activator (agonist), the melanocortin receptor will activate the cAMP pathway, which, via the vector CRE-Luc, will lead to the synthesis of luciferase. After addition of a lysis buffer containing a luminescent luciferase substrate, the luminescence proportional to the degree of activation or inhibition of receptor may be measured.
The products are dissolved at 10 mM in DMSO. They are tested as a response dose at 0.1% of DMSO final. The range comprising 10 points and a zero starts at 10 μM with four-fold dilutions. To test agonists, the products are tested alone. To determine the antagonist behaviour, the products of interest are tested in the presence of 1 nM NDP-MSH (reference agonist). The cells are inoculated at a rate of 5000 cells per well (384-well plate) in serum-free DMEM medium and incubated overnight at 37° C. and 5% CO2.
The products and the reference ligand (NDP-MSH) are added the following day and the plates are reincubated for 6 hours at 37° C. and 5% CO2. After adding the lysis buffer containing luciferin, the plates are read in a Top-Count machine. […] An EC50 is calculated for each product using the XLFit software. […]

[4] = Log P and Log D by HPLC-MS (octanol-water); assay type: physicochemical; conditions: octanol/water (50/50 v/v); octanol-water 50/50, pH 6.5, LC/MS/MS
From the text: Lod P and Loci D by HPLC-MS
Log P, also known as Log Kow, (octanol/water partition coefficient) enables characterization of the lipophilic nature of a molecule. Log P=Log(Coct/Cwater)
In contrast with Log P, Log D is a determination of a given pH.
Preparation of the Samples
The molecule at 10^−2M in DMSO is placed in an octanol-water mixture (50/50 volume/volume).
After stirring for ten hours, the sample is centrifuged and the two phases are separated in order to be analysed. The octanol phase is diluted in methanol before assay.
The concentrations of test molecule present in each phase are determined by an LC/MS/MS analysis. Log P=Log(areaoct*Dilution factor/areaaq)

T1 sequence (Q01726 whole entry): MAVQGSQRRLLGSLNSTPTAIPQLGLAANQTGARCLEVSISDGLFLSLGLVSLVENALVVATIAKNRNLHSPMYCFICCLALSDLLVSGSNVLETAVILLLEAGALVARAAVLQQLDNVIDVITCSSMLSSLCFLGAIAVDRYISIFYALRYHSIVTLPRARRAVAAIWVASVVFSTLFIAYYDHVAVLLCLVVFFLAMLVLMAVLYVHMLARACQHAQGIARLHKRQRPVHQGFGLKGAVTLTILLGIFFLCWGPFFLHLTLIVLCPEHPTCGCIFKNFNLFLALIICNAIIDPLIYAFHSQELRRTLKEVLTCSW

half-life at 10 μM [2] [min]	pEC50 [3]	logD at 10 h [4]	Structure (SMILES)	Value of L at D19, Mean [1]
3 to 4	7.22	4	CCOC(=O)C1(C2CCCCC2)CCN(C(=O)[C@@H](Cc2ccc(OC)cc2)NC(=O)NCCc2c[nH]cn2)CC1 [Compound 34, Ethyl 4-cyclohexyl-1-[(R)-2-{3-[2-(1H-imidazol-4-yl)ethyl]-ureido}-3-(4-methoxyphenyl)propionyl]piperidine-4-carboxylate]	27.42
3 to 4	6.92	4.8	CCCC(=O)C1(C2CCCCC2)CCN(C(=O)[C@@H](Cc2ccc(OC)cc2)NC(=O)NCCc2c[nH]cn2)CC1 [Compound 40, 1-[(R)-2-(4-Butyryl-4-cyclohexylpiperidin-1-yl)-1-(4-methoxybenzyl)-2-oxoethyl]-3-[2-(1H-imidazol-4-yl)ethyl]urea]	31.00
